US20080234262A1 (Wyeth, priority 2007, published 2008)

Columns and labels:
breast line MDA468 = assay: In vitro cell culture growth assay (MTS), MDA468; assay type: cell-based, human; settings: MDA468 cells, three days after drug treatment
Description: Human tumor cell lines used include prostate lines LNCap and PC3MM2, breast lines MDA468, MCF7, renal line HTB44 (A498), colon line HCT116, and ovarian line OVCAR3. Cells were plated in 96-well culture plates. One day following plating, the inhibitors were added to cells. Three days after drug treatment, viable cell densities were determined by metabolic conversion (by viable cells) of the dye MTS, a well established cell proliferation assay. The assays were performed using an assay kit purchased from Promega Corp. (Madison, Wis.) following the protocol supplied with the kit. The MTS assay results were read in a 96-well plate reader by measuring absorbance at 490 nm. The effect of each treatment was calculated as percent of control growth relative to the vehicle-treated cells grown in the same culture plate.

PI3K = PI3K (Homo sapiens, UniProt P42336); assay: Fluorescence polarization assay for PI3K; assay type: biochemical; settings: PI3Kα; read-out: PI3Kα IC50;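 further: PI3K kinase reaction on PIP2 with ATP, 30-60 min, product sensed by GST-GRP with red probe in fluorescence polarization (mP), controls without enzyme and at zero time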
PI3K, sequence (P42336 whole entry): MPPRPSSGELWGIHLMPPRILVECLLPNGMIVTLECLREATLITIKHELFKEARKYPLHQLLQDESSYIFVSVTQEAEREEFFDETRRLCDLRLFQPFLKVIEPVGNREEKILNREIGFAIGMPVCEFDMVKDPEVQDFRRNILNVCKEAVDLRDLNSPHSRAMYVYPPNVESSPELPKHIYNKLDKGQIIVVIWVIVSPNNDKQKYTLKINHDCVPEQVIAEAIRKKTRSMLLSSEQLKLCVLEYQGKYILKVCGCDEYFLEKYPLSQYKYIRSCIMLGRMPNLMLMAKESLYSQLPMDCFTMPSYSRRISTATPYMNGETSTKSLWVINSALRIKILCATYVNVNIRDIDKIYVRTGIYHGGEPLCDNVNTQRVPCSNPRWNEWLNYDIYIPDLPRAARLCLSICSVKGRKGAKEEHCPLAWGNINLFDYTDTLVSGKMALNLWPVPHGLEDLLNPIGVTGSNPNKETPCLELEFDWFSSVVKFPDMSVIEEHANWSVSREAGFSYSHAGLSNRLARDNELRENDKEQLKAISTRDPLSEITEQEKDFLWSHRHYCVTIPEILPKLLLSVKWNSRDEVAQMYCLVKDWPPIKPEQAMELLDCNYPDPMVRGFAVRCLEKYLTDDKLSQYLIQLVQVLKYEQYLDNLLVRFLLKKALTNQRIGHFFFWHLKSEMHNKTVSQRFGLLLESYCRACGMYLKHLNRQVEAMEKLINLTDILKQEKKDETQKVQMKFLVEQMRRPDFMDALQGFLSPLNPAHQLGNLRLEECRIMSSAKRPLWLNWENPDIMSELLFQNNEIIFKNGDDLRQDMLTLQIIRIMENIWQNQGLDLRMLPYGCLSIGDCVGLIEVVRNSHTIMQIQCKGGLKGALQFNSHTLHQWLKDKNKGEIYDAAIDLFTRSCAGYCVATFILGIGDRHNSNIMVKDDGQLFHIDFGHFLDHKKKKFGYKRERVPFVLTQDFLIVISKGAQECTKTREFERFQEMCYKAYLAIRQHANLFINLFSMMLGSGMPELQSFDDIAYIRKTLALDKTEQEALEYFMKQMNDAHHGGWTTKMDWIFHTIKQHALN
PI3K, sequence (P27986 whole entry partner): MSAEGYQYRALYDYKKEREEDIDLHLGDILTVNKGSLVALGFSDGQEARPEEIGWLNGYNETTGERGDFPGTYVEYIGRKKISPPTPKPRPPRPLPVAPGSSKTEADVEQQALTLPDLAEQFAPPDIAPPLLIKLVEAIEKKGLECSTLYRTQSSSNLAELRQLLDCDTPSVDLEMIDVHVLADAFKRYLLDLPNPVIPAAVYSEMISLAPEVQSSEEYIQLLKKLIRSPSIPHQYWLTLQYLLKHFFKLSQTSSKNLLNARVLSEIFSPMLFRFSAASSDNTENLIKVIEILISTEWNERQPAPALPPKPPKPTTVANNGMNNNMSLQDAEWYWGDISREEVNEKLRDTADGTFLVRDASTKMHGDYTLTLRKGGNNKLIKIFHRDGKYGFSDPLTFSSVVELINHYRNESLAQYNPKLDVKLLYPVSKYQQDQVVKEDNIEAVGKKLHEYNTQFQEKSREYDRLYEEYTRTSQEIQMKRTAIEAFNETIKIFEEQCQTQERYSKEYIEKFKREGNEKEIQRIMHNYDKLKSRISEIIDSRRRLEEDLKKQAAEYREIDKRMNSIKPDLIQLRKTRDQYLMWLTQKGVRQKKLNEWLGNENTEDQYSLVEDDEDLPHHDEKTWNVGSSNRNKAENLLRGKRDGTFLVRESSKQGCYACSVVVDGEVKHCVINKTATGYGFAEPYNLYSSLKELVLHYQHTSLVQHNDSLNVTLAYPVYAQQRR

Compound | IC50 (breast line MDA468; Homo sapiens, 72 h) [nM] | IC50 (PI3K) [nM] | further results
COC(=O)N1CCC(n2ncc3c(N4CCOCC4)nc(-c4ccc(NC(=O)Nc5ccc(CCO)cc5)cc4)nc32)CC1 [Compound 913, methyl 4-{6-[4-({[4-(2-hydroxyethyl)phenyl]carbamoyl}amino)phenyl]-4-morpholin-4-yl-1H-pyrazolo[3,4-d]pyrimidin-1-yl}piperidine-1-carboxylate] | 1.3 | – | –
CNC(=O)Nc1ccc(-c2nc(N3CCOCC3)c3cnn(C4CCN(Cc5ccccc5)CC4)c3n2)cc1 [Example 206, N-{4-[1-(1-benzylpiperidin-4-yl)-4-morpholin-4-yl-1H-pyrazolo[3,4-d]pyrimidin-6-yl]phenyl}-N′-methylurea] | 100 | – | –
O=C(NCCF)Nc1ccc(-c2nc(N3CCOCC3)c3cnn(C4CCN(Cc5ccccc5)CC4)c3n2)cc1 [Compound 534, 1-{4-[1-(1-benzylpiperidin-4-yl)-4-morpholin-4-yl-1H-pyrazolo[3,4-d]pyrimidin-6-yl]phenyl}-3-(2-fluoroethyl)urea] | 27.4 | – | –
CNC(=O)Nc1ccc(-c2nc(N3CCOCC3)c3cnn(C4CCN(C(=O)OC(C)(C)C)CC4)c3n2)cc1 [Compound 583, tert-butyl 4-(6-{4-[(methylcarbamoyl)amino]phenyl}-4-morpholin-4-yl-1H-pyrazolo[3,4-d]pyrimidin-1-yl)piperidine-1-carboxylate] | – | – | IC50 (breast line MDA468): 450 nM
CNC(=O)Nc1ccc(-c2nc(N3CCOCC3)c3cnn(C4CCN(C(=O)OC(C)(C)C)CC4)c3n2)cc1 [Compound 582, tert-butyl 4-(6-{4-[(methylcarbamoyl)amino]phenyl}-4-morpholin-4-yl-1H-pyrazolo[3,4-d]pyrimidin-1-yl)piperidine-1-carboxylate] | – | – | IC50 (breast line MDA468): 210 nM
CC(C)OC(=O)N1CCC(n2ncc3c(N4CCOCC4)nc(-c4ccc(NC(=O)NCCF)cc4)nc32)CC1 [Compound 833, isopropyl 4-[6-(4-{[(2-fluoroethyl)carbamoyl]amino}phenyl)-4-morpholin-4-yl-1H-pyrazolo[3,4-d]pyrimidin-1-yl]piperidine-1-carboxylate] | 250 | – | –
O=C(Nc1ccc(-c2nc(N3CCOCC3)c3cnn(C4CCN(Cc5ccccc5)CC4)c3n2)cc1)NC1CC1 [Compound 556, 1-{4-[1-(1-benzylpiperidin-4-yl)-4-morpholin-4-yl-1H-pyrazolo[3,4-d]pyrimidin-6-yl]phenyl}-3-cyclopropylurea] | 1050 | – | –
CNC(=O)Nc1ccc(-c2nc(N3CCOCC3)c3cnn(C4CCN(C(=O)c5ccccc5F)CC4)c3n2)cc1 [Example 354, 1-(4-{1-[1-(2-fluorobenzoyl)piperidin-4-yl]-4-morpholin-4-yl-1H-pyrazolo[3,4-d]pyrimidin-6-yl}phenyl)-3-methylurea] | – | 80 | –
COC(=O)Nc1ccc(-c2nc(N3CCOCC3)c3cnn(C4CCCCO4)c3n2)cc1 (stereo not drawn) [Compound 274, methyl {4-[4-morpholin-4-yl-1-(tetrahydro-2H-pyran-2-yl)-1H-pyrazolo[3,4-d]pyrimidin-6-yl]phenyl}carbamate] | – | 2550 | –
O=C(Nc1cc(F)c(-c2nc(N3CCOCC3)c3cnn(C4CCN(C(=O)c5cccnc5)CC4)c3n2)cc1F)NC1CC1 [Compound 712, 1-cyclopropyl-3-(2,5-difluoro-4-{4-morpholin-4-yl-1-[1-(pyridin-3-ylcarbonyl)piperidin-4-yl]-1H-pyrazolo[3,4-d]pyrimidin-6-yl}phenyl)urea] | – | 3560 | –
CCNC(=O)Nc1ccc(-c2nc(N3CCOCC3)c3cnn(C4CCN(Cc5cccnc5)CC4)c3n2)cn1 [Compound 479, 1-ethyl-3-(5-{4-morpholin-4-yl-1-[1-(pyridin-3-ylmethyl)piperidin-4-yl]-1H-pyrazolo[3,4-d]pyrimidin-6-yl}pyridin-2-yl)urea] | – | 138 | –
COC(=O)Nc1ccc(-c2nc(N3CCOCC3)c3cnn(C4CCN(Cc5ccccc5Cl)CC4)c3n2)cc1 [Compound 699, methyl (4-{1-[1-(2-chlorobenzyl)piperidin-4-yl]-4-morpholin-4-yl-1H-pyrazolo[3,4-d]pyrimidin-6-yl}phenyl)carbamate] | – | 786 | –
